Experimental data reported in patent publication US9049863B2, “Substituted (3R,4R)-4-cyan-3,4-diphenylbutanoates, method for the production thereof and use thereof as herbicides and plant growth regulators” (Bayer Intellectual Property GmbH, priority 2011, dated 2015).

Tests used:
Assay type in all cases: in vivo
[1] = test system: a plurality of harmful plants; test: Herbicidal pre-emergence action; conditions: 320 g or less of active substance per hectare
Text: Seeds of monocotyledonous and dicotyledonous weed plants and crop plants are placed in wood-fiber pots in sandy loam and covered with soil. The compounds (I) according to the invention, formulated in the form of wettable powders (WP), are then applied as aqueous suspension or emulsion at a water application rate of 600 l/ha (converted) with the addition of 0.2% of wetting agent to the surface of the covering soil.
After the treatment, the pots are placed in a greenhouse and kept under good growth conditions for the test plants. After about 3 weeks, the effect of the preparations is scored visually in comparison with untreated controls as percentages. For example, 100% activity=the plants have died, 50% herbicidal activity or damage=the plants have been reduced by 50% or the plant mass has been reduced by 50%, 0% activity=like control plants.

Alopecurus myosuroides = test: Herbicidal action and crop plant compatibility, pre-emergence (3.2); conditions: 80 g/ha, about 4 weeks
Text: (§1) 3.2 In further trials in the greenhouse, seeds of crop plants and seeds of harmful plants are placed in pots in sandy loam soil, covered with earth and cultivated under good growth conditions. The compounds (I) according to the invention, formulated in the form of wettable powders (WP), are then applied as aqueous suspension or emulsion at a water application rate of 300 l/ha (converted) with the addition of 0.2% of wetting agent to the surface of the covering soil. After the test plants have been kept in the greenhouse under optimum growth conditions for about 4 weeks, the activity of the preparations is rated visually in comparison to untreated controls in percent (%): For example, 100% activity=the plants have died, 50% herbicidal activity or damage=the plants have been reduced by 50% or the plant mass has been reduced by 50%, 0% activity=like control plants.

Amaranthus retroflexus = test: as above; conditions: 80 g/ha, about 4 weeks
Text: as §1

Avena fatua [2] = test: as above; conditions: 80 g/ha, about 4 weeks
Text: as §1

Echinochloa crus-galli [3] = test: as above; conditions: 80 g/ha, about 4 weeks
Text: as §1

Lolium multiflorum = test: as above; conditions: 80 g/ha, about 4 weeks
Text: as §1

Polygonum convolvulus [4] = test: as above; conditions: 80 g/ha, about 4 weeks
Text: as §1

Setaria viridis [5] = test: as above; conditions: 80 g/ha, about 4 weeks
Text: as §1

Veronica persica [6] = test: as above; conditions: 80 g/ha, about 4 weeks
Text: as §1

Viola tricolor [7] = test: as above; conditions: 80 g/ha, about 4 weeks
Text: as §1

Avena fatua [8] = test: Herbicidal action and crop plant compatibility, post-emergence (3.3); conditions: 80 g/ha, 4 weeks after the treatment
Method: (§2) 3.3 In further trials in the greenhouse, seeds of crop plants and seeds of harmful plants are placed in pots in sandy loam soil, covered with earth and cultivated under good growth conditions. The test plants are treated at the 2-3-leaf stage, where the compounds (I) according to the invention, formulated in the form of wettable powders (WP), are applied by spraying as aqueous suspension or emulsion at a water application rate of […] (converted) with the addition of 0.2% of wetting agent to the green parts of the plants. 4 weeks after the treatment and after the test plants have been kept in the greenhouse under optimum growth conditions, the activity of the preparations is rated visually in comparison to untreated controls in percent (%): For example, 100% activity=the plants have died, 50% herbicidal activity or damage=the plants have been reduced by 50% or the plant mass has been reduced by 50%, 0% activity=like control plants.

Echinochloa crus-galli [9] = test: as above; conditions: 80 g/ha, 4 weeks after the treatment
Method: as §2

Polygonum convolvulus [10] = test: as above; conditions: 80 g/ha, 4 weeks after the treatment
Method: as §2

Setaria viridis [11] = test: as above; conditions: 80 g/ha, 4 weeks after the treatment
Method: as §2

Veronica persica [12] = test: as above; conditions: 80 g/ha, 4 weeks after the treatment
Method: as §2

Viola tricolor [13] = test: as above; conditions: 80 g/ha, 4 weeks after the treatment
Method: as §2

oilseed rape = test: as above; conditions: 80 g/ha, 4 weeks after the treatment
Method: as §2

wheat = test: as above; conditions: 80 g/ha, 4 weeks after the treatment
Method: as §2

COC(=O)C[C@@H](c1ccc(Cl)cc1)[C@@H](C#N)c1cccc(F)c1 [Example 1, methyl (3R,4R)-3-(4-chlorophenyl)-4-cyano-4-(3-fluorophenyl)butanoate]
herbicidal activity against a plurality of harmful plants [1]: good herbicidal activity | herbicidal activity against Alopecurus myosuroides (Alopecurus myosuroides): 80 to 100% | herbicidal activity against Amaranthus retroflexus (Amaranthus retroflexus): 80 to 100% | herbicidal activity against Avena fatua (Avena fatua [2]): 80 to 100% | herbicidal activity against Echinochloa crus-galli (Echinochloa crus-galli [3]): 80 to 100% | herbicidal activity against Lolium multiflorum (Lolium multiflorum): 80 to 100% | herbicidal activity against Polygonum convolvulus (Polygonum convolvulus [4]): 80 to 100% | herbicidal activity against Setaria viridis (Setaria viridis [5]): 80 to 100% | herbicidal activity against Veronica persica (Veronica persica [6]): 80 to 100% | herbicidal activity against Viola tricolor (Viola tricolor [7]): 80 to 100%

CCCCOC(=O)C[C@@H](c1cccc(F)c1)[C@@H](C#N)c1ccc(F)c(F)c1 [Example 86]
herbicidal activity against a plurality of harmful plants [1]: good herbicidal activity | herbicidal activity against Avena fatua (Avena fatua [8]): 90% | herbicidal activity against Echinochloa crus-galli (Echinochloa crus-galli [9]): 80% | herbicidal activity against Polygonum convolvulus (Polygonum convolvulus [10]): 80% | herbicidal activity against Setaria virides (Setaria viridis [11]): 80% | herbicidal activity against Veronica persica (Veronica persica [12]): 70% | herbicidal activity against Viola tricolor (Viola tricolor [13]): 80% | selectivity in oilseed rape (damage) (oilseed rape): 0% | selectivity in wheat (damage) (wheat): up to 10%

COC(=O)C[C@@H](c1ccc(F)cc1)[C@@H](C#N)c1cccc(F)c1 [Example 20]
herbicidal activity against a plurality of harmful plants [1]: good herbicidal activity

CC(C)OC(=O)C[C@@H](c1cccc(F)c1)[C@@H](C#N)c1ccc(F)c(F)c1 [Example 85]
herbicidal activity against a plurality of harmful plants [1]: good herbicidal activity

COC(=O)C[C@@H](c1cccc(F)c1)[C@@H](C#N)c1cc(F)cc(F)c1 [Example 12]
herbicidal activity against a plurality of harmful plants [1]: good herbicidal activity
